Experimental data reported in US20060058504A1, “Peptides capable of inducing attraction to the axonal growth and their use for treating neurodegenerative diseases” (Centre National de la Recherche Scientific (CNRS), priority 2002, published 2006).
Numbering of substitutions follows the chain as printed. Names and notes keep the numbering of the source. “Also recorded” adds a separate entry of the source.

What was measured:
[1] = test system: cortical axons repelled by Sema3A secreted from the ventral spinal cord; assay: Co-culture of cortical slices and ventral spinal cord explants (axon guidance response to Sema3A); format: cell-based, mice; conditions: for conversion of Sema3A-induced chemorepulsion into attraction by peptide: peptide at 10^−6M; for Axonal length, Away / Number of axons, Away / Axonal length, Towards / Number of axons, Towards: Ctx/vSC co-culture, L1Fc 3 μg/ml, ODQ 10^−5 M; for Axonal length, Away / Number of axons, Away: growth away from spinal cord explant; for Axonal length, Towards / Number of axons, Towards: growth towards spinal cord explant; for effect of inhibitor on L1Fc-induced switch of Sema3A repulsion to attraction: inhibitor combined with L1Fc 3 μg/ml; for guidance index: qualitative index from −2 (repulsion) to +2 (attraction), L1Fc chimeras 3 μg/ml, ODQ 10^−5M; for switching of Sema3A repulsion to attraction by L1Fc chimera: chimera 3 μg/ml in culture medium
Method: Blocks of cortex were dissected from P0 (postnatal day 0) to P2 mice and cut into 250 μm thick slices with a McIlwain tissue chopper. The ventral part of the cervical spinal cord was dissected and cut into 250 μm thick slices. Co-culture of cortical slices and ventral spinal cord explants were performed in a three-dimensional plasma clot, as described previously (Castellani et al., 2000). Cortical slices were oriented in the plasma clot as indicated in FIG. 1B to give to axons equivalent chances to be deflected away or towards the spinal cord explant. Purified wild-type or mutant L1Fc chimeras were added to the culture medium (3 μg/ml). Inhibitors of the guanylyl cyclase (ODQ, 10^−5 M, Sigma) and NOS (7NI, […], Sigma) were added to the culture medium, either alone or with wild-type L1Fc (3 μg/ml). After one or two days in vitro (DIV), the cultures were fixed with 4% paraformaldehyde (PFA) and analyzed by phase contrast microscopy (Axiovert 35-M, Zeiss). A qualitative guidance index was attributed to the co-cultures, to assess the degree of repulsive (negative values) or attractive (positive values) effects (Castellani et al., 2000). The index ranged from −2 (when most fibers grew away from the spinal cord explant) to +2 (when most fibers grew towards the explant), with intermediate situations (index of −1 and +1 for moderate guidance effects). An index of zero was attributed to the cultures showing no preferential growth. Quantitative analysis of axon length and number of axons growing from cortical slices was performed as described previously (Castellani et al., 2000). A proximal and a distal region, each of them covering a 600 μm-piece of cortical tissue were determined for each culture. All fibers extending from these two regions were counted and the length of the three longest fibers was measured, using computer analysis software (Visiolab 2000, Biocom). Immunofluorescence labeling of axons was performed using the mouse anti-phosphorylated neurofilament antibody SMI31 (Stemberger and Meyer Inc.), and Texas red-conjugated secondary anti-mouse antibody (see result obtained for number of axons and axonal length in the following tables 1 and 2).
It has been previously developed an assay system using explants of ventral spinal cord co-cultured with cortical axons in order to determine the factors involved in axonal repulsion and attraction (Castellani et al., 2000). Using this system we have shown that Sema3A secreted from the ventral spinal cord repels cortical axons. In the presence of soluble wild-type L1Fc chimeric protein however, repulsion is switched to attraction (Castellani et al., […]). In the present study, we aimed to identify the L1 interactions underlying the switching process. As Ig domains have been implicated in binding of Ig CAMs to many of their ligands (Brümmendorf and Rathjen, 1996) we hypothesized that they would also be required for L1 Fc-mediated switching. […] L1 Fc chimeras containing pathological missense mutations affecting specific Ig domains (De Angelis et al., 1999 and FIGS. 1A, 1B) were assessed for their ability to reverse Sema3A repulsion to attraction.

L1 = conditions: mutant bound to itself; cited from earlier work
full length human L1 = target: T1, full length human L1 (Homo sapiens, UniProt P32004); assay: Binding of L1Fc chimeras to COS cells expressing wild-type L1 (immunofluorescence)
T1 construct: transiently transfected with expression vectors encoding full length human L1; expressed in transfected cells; host or cells: COS7
T1 sequence (P32004 20-1257): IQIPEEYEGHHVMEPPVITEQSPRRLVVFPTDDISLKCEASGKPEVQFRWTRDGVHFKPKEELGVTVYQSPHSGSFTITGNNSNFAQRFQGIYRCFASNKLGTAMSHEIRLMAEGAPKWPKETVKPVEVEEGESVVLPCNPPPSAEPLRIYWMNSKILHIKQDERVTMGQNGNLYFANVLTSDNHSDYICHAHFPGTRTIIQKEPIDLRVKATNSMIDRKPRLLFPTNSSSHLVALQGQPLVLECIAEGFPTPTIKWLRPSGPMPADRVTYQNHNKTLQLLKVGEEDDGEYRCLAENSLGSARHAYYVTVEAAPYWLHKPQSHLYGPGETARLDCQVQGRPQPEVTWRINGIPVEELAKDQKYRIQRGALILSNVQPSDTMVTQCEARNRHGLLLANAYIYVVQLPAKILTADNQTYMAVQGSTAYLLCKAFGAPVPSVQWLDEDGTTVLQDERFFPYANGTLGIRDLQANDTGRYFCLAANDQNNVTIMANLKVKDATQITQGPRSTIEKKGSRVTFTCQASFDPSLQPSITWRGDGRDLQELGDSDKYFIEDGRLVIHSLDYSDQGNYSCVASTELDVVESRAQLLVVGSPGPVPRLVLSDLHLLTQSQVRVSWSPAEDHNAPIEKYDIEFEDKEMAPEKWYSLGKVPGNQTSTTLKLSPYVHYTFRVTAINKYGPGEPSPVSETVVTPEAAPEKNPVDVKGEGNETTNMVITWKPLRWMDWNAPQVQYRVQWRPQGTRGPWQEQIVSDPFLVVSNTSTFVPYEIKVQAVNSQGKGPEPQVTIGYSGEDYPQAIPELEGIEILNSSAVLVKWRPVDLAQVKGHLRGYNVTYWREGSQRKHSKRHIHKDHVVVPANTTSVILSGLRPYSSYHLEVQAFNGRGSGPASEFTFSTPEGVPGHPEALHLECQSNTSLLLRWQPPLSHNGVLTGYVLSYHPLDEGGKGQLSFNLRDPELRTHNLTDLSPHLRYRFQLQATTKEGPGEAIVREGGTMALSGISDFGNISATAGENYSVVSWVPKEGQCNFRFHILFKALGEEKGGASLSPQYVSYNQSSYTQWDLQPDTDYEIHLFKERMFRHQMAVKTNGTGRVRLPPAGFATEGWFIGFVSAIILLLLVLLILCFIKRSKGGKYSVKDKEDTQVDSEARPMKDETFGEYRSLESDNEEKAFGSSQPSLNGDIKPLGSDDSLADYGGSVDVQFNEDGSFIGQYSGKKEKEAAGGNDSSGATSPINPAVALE
Method: (§1) The mutant L1Fc chimeras were produced and purified as described previously (De Angelis et al., 1999). Briefly, COS-7 cells were transiently transfected with 10 μg DNA per 150 mm culture dish, the soluble Fc chimeric protein was allowed to accumulate in the media for 6 days and was recovered and purified by protein A-Sepharose affinity chromatography. In the binding experiments, L1Fcs were cross-linked to anti-human Fc antibodies (50 μg/ml, Jackson Immunoresearch) for 1 hr at 37° C. Binding detection to NP-1 requested concentrations of L1Fcs 10 folds higher than L1. Antibody conjugated L1-Fc protein was then incubated with monolayers of COS7 cells transiently transfected with expression vectors encoding full length human L1 or myc-tagged NP-1 where the cytoplasmic domain is deleted (gift of J. Raper, 2000 and Renzi et al., 1999). Following incubation, the cells were fixed with 4% PFA, and processed for double-immunofluorescence detection. NP-1 was detected using a mouse anti-c myc antibody (clone 9E10, Sigma) and L1 using a rat monoclonal anti-L1 antibody. Secondary antibody anti-c-myc (Texas-red conjugated anti-mouse antibodies) was used to detect NP-1, anti-L1 (Texas red conjugated anti-rat antibodies) to detect L1, and anti-Fc (FITC conjugated anti-rabbit antibodies) to detect bound L1Fc chimeras. After secondary antibody incubation, the cells were washed with PBS and mounted in Mowiol (Calbiochem).
Thus, Ig CAMs F3 and TAG-1 (the rodent homologue of axonin-1) ate unlikely to be axonal receptors for L1Fc in the reversion process. […] In the present study however, mutated L1Fc proteins were required to interact with wild-type L1 expressed on growth cones. To formally exclude a role for homophilic binding of L1 in the initiation of the reversion process, it was therefore necessary to examine whether homophilic binding of the mutated L1Fc chimeras to wild-type L1 was also disrupted. Mutated L1Fcs were therefore incubated with COS7 cells transfected with full-length wild-type L1 cDNA and binding was assessed by immunofluorescence. In parallel, homophilic binding of mutant/mutant and mutant/wild-type L1Fcs was compared in a two-color FACS aggregation assay, allowing a quantitative assessment to be made (see Methods). […] Similarly, in the two color FACS assay homophilic binding was restored to 74.4% and 90.5% of wild-type levels for A426D and H210Q respectively (FIG. 2B). […] This mutation however still promoted the L1 Fc induced switching of Sema3A repulsion to attraction in the co-culture assay. Thus, the ability of L1Fc to switch Sema3A repulsion is not dependent on homophilic binding. Consequently, the trans interaction of L1Fc with L1 in the receptor complex is not required for the change in growth cone responsiveness to Sema3A.

NP-1 = assay: Binding of L1Fc chimeras to NP-1 expressing COS7 cells (immunofluorescence)
Method: as §1
Next, we examined the ability of the mutant L1 Fc chimeras to bind NP-1. COS7 cells were transfected with a vector encoding the extracellular and transmembrane domains of NP-1 fused to a myc tag (ANP-1, Renzi et al., J. Neurosci., 15:7870-7880, 1999), and incubated with the mutant L1Fc chimeras. Binding was detected by immunofluorescence. […] Binding of L120V, G121S and A426D L1Fcs to NP-1 is illustrated in FIG. 3.

F3, axonin-1 and TAX-1 = conditions: F3, axonin-1 (and TAX-1 where stated); cited from earlier work

## ASNKL (Description of the Artificial sequence Derived from the human amino-acid sequence of L1 Ig1 domain) [ASNKL120, five amino-acid peptide from L1 Ig1 domain]
[1]
  conversion of Sema3A-induced chemorepulsion into attraction by peptide: successfully converted Sema3A-induced chemorepulsion into attraction

## FASNKLGTAM (Description of the Artificial sequence Derived from the human amino-acid sequence of L1 Ig1 domain) [ten amino-acid peptide from L1 Ig1 domain]
[1]
  conversion of Sema3A-induced chemorepulsion into attraction by peptide: successfully converted Sema3A-induced chemorepulsion into attraction

## O=[N+]([O-])c1cccc2cn[nH]c12 [7NI, 7 nitroindazole, reference compound]
[1]
  Axonal length, Away: 407.6 +/− 5
  Number of axons, Away: 25.6 +/− 1.6
  Axonal length, Towards: 203.1 +/− 6, *
  Number of axons, Towards: 5 +/− 0.6, *
  effect of inhibitor on L1Fc-induced switch of Sema3A repulsion to attraction: did block L1Fc-mediated chemoattraction; also recorded: prevented the L1 Fc induced switching of Sema3A from repulsion to attraction
  guidance index: −1.6

## O=c1onc2cnc3ccccc3n12 [ODQ, 1H-(1,2,4)oxadiazolo(4,3-a)quinoxalin-1-one, reference compound]
[1]
  Axonal length, Away: 384.1 +/− 7
  Number of axons, Away: 25.2 +/− 1.8
  Axonal length, Towards: 206.9 +/− 8, *
  Number of axons, Towards: 5.1 +/− 0.5, *^
  effect of inhibitor on L1Fc-induced switch of Sema3A repulsion to attraction: reversion was prevented; also recorded: prevented the L1 Fc induced switching of Sema3A from repulsion to attraction
  guidance index: −1.6

B1: H210Q: L1Fc chimera with missense mutation H210Q in Ig domain 2 (protein)
chain: IQIPEEYEGHHVMEPPVITEQSPRRLVVFPTDDISLKCEASGKPEVQFRWTRDGVHFKPKEELGVTVYQSPHSGSFTITGNNSNFAQRFQGIYRCFASNKLGTAMSHEIRLMAEGAPKWPKETVKPVEVEEGESVVLPCNPPPSAEPLRIYWMNSKILHIKQDERVTMGQNGNLYFANVLTSDNHSDYICQAHFPGTRTIIQKEPIDLRVKATNSMIDRKPRLLFPTNSSSHLVALQGQPLVLECIAEGFPTPTIKWLRPSGPMPADRVTYQNHNKTLQLLKVGEEDDGEYRCLAENSLGSARHAYYVTVEAAPYWLHKPQSHLYGPGETARLDCQVQGRPQPEVTWRINGIPVEELAKDQKYRIQRGALILSNVQPSDTMVTQCEARNRHGLLLANAYIYVVQLPAKILTADNQTYMAVQGSTAYLLCKAFGAPVPSVQWLDEDGTTVLQDERFFPYANGTLGIRDLQANDTGRYFCLAANDQNNVTIMANLKVKDATQITQGPRSTIEKKGSRVTFTCQASFDPSLQPSITWRGDGRDLQELGDSDKYFIEDGRLVIHSLDYSDQGNYSCVASTELDVVESRAQLLVVGSPGPVPRLVLSDLHLLTQSQVRVSWSPAEDHNAPIEKYDIEFEDKEMAPEKWYSLGKVPGNQTSTTLKLSPYVHYTFRVTAINKYGPGEPSPVSETVVTPEAAPEKNPVDVKGEGNETTNMVITWKPLRWMDWNAPQVQYRVQWRPQGTRGPWQEQIVSDPFLVVSNTSTFVPYEIKVQAVNSQGKGPEPQVTIGYSGEDYPQAIPELEGIEILNSSAVLVKWRPVDLAQVKGHLRGYNVTYWREGSQRKHSKRHIHKDHVVVPANTTSVILSGLRPYSSYHLEVQAFNGRGSGPASEFTFSTPEGVPGHPEALHLECQSNTSLLLRWQPPLSHNGVLTGYVLSYHPLDEGGKGQLSFNLRDPELRTHNLTDLSPHLRYRFQLQATTKEGPGEAIVREGGTMALSGISDFGNISATAGENYSVVSWVPKEGQCNFRFHILFKALGEEKGGASLSPQYVSYNQSSYTQWDLQPDTDYEIHLFKERMFRHQMAVKTNGTGRVRLPPAGFATE
modifications: left off: a dimerising Fc or GST
L1
  effect of mutation on homophilic binding: affect homophilic
[1]
  switching of Sema3A repulsion to attraction by L1Fc chimera: able to reverse Sema3A repulsion to attraction; also recorded: efficiently induce switching of Sema3A repulsion to attraction
Full length human L1
  binding to wild-type L1 expressed in COS cells: bound to wild-type L1
NP-1
  binding to NP-1 expressing cells: bound NP-1 expressing cells

B2: E309K: L1Fc chimera with missense mutation E309K in Ig domain 3 (protein)
chain: B1 chain with Q191H, E290K
modifications: left off: a dimerising Fc or GST
[1]
  switching of Sema3A repulsion to attraction by L1Fc chimera: able to reverse Sema3A repulsion to attraction; also recorded: efficiently induce switching of Sema3A repulsion to attraction; also recorded: switched Sema3A from repulsion to attraction to the same extent as wild type L1Fc
F3, axonin-1 and TAX-1
  effect of mutation on heterophilic binding: affect
NP-1
  binding to NP-1 expressing cells: bound NP-1 expressing cells

B3: A426D: L1Fc chimera with missense mutation A426D in Ig domain 5 (protein)
chain: B1 chain with Q191H, A407D
modifications: left off: a dimerising Fc or GST
L1
  effect of mutation on homophilic binding: reduce homophilic binding
[1]
  switching of Sema3A repulsion to attraction by L1Fc chimera: able to reverse Sema3A repulsion to attraction; also recorded: efficiently induce switching of Sema3A repulsion to attraction; also recorded: switched Sema3A from repulsion to attraction to the same extent as wild type L1Fc
F3, axonin-1 and TAX-1
  effect of mutation on heterophilic binding: reduce
Full length human L1
  binding to wild-type L1 expressed in COS cells: bound to wild-type L1
NP-1
  binding to NP-1 expressing cells: bound to NP-1 expressing cells
